Tests used:
Conditions in all cases: incubation time: 72 h
MFM-223 [1] = test: normalised response (% of control), CellTiter-Glo; higher = more viable cells (100 = DMSO, 0 = benzethonium chloride kill control)
Summary of the method: (§1)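 Breast cancer cell lines, seeded at 20 µl suspension per well, were incubated for 72 h in 384-well plates containing compound at 5 concentrations. These concentrations rose in 10-fold steps over a 10,000-fold range set for each compound. CellTox Green fluorescence (485/520 nm) was read, then CellTiter-Glo luminescence after 10 min at room temperature, and each plate was normalised to 0.1 % DMSO (100) and a positive kill control (0). Values are normalised signals, each at one concentration.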

MDA-MB-453 [2] = test: as above
Summary of the method: as §1

DU-4475 [3] = test: as above
Summary of the method: as §1

HCC1599 [4] = test: as above
Summary of the method: as §1

HDQ-P1 [5] = test: as above
Summary of the method: as §1

CAL-51 [6] = test: as above
Summary of the method: as §1

CAL-120 [7] = test: as above
Summary of the method: as §1

MDA-MB-231 [8] = test: as above
Summary of the method: as §1

HCC1937 [9] = test: as above
Summary of the method: as §1

BT-549 [10] = test: as above
Summary of the method: as §1

HCC1143 [11] = test: as above
Summary of the method: as §1

MCF-10A [12] = test: as above
Summary of the method: as §1

MDA-MB-468 [13] = test: as above
Summary of the method: as §1

CAL-148 [14] = test: as above
Summary of the method: as §1

MDA-MB-436 [15] = test: as above
Summary of the method: as §1

SK-BR-3 = test: as above
Summary of the method: as §1

BT-474 [16] = test: as above
Summary of the method: as §1

CAL-85-1 [17] = test: as above
Summary of the method: as §1

Hs578T [18] = test: as above
Summary of the method: as §1

MFM-223 [19] = test: normalised response (% of control), CellTox Green; higher = less cell death (100 = DMSO, 0 = benzethonium chloride kill control)
Summary of the method: as §1

MDA-MB-453 [20] = test: as above
Summary of the method: as §1

DU-4475 [21] = test: as above
Summary of the method: as §1

HCC1599 [22] = test: as above
Summary of the method: as §1

HDQ-P1 [23] = test: as above
Summary of the method: as §1

CAL-51 [24] = test: as above
Summary of the method: as §1

CAL-120 [25] = test: as above
Summary of the method: as §1

MDA-MB-231 [26] = test: as above
Summary of the method: as §1

HCC1937 [27] = test: as above
Summary of the method: as §1

BT-549 [28] = test: as above
Summary of the method: as §1

HCC1143 [29] = test: as above
Summary of the method: as §1

MCF-10A [30] = test: as above
Summary of the method: as §1

MDA-MB-468 [31] = test: as above
Summary of the method: as §1

CAL-148 [32] = test: as above
Summary of the method: as §1

MDA-MB-436 [33] = test: as above
Summary of the method: as §1

BT-474 [34] = test: as above
Summary of the method: as §1

CAL-85-1 [35] = test: as above
Summary of the method: as §1

Hs578T [36] = test: as above
Summary of the method: as §1

SMILES | normalised response (MFM-223 [1]) [%] | normalised response (MDA-MB-453 [2]) [%] | normalised response (DU-4475 [3]) [%] | normalised response (HCC1599 [4]) [%] | normalised response (HDQ-P1 [5]) [%] | normalised response (CAL-51 [6]) [%] | normalised response (CAL-120 [7]) [%] | normalised response (MDA-MB-231 [8]) [%] | normalised response (HCC1937 [9]) [%] | normalised response (BT-549 [10]) [%] | normalised response (HCC1143 [11]) [%] | normalised response (MCF-10A [12]) [%] | normalised response (MDA-MB-468 [13]) [%] | normalised response (CAL-148 [14]) [%] | normalised response (MDA-MB-436 [15]) [%] | normalised response (SK-BR-3) [%] | normalised response (BT-474 [16]) [%] | normalised response (CAL-85-1 [17]) [%] | normalised response (Hs578T [18]) [%] | normalised response (MFM-223 [19]) [%] | normalised response (MDA-MB-453 [20]) [%] | normalised response (DU-4475 [21]) [%] | normalised response (HCC1599 [22]) [%] | normalised response (HDQ-P1 [23]) [%] | normalised response (CAL-51 [24]) [%] | normalised response (CAL-120 [25]) [%] | normalised response (MDA-MB-231 [26]) [%] | normalised response (HCC1937 [27]) [%] | normalised response (BT-549 [28]) [%] | normalised response (HCC1143 [29]) [%] | normalised response (MCF-10A [30]) [%] | normalised response (MDA-MB-468 [31]) [%] | normalised response (CAL-148 [32]) [%] | normalised response (MDA-MB-436 [33]) [%] | normalised response (BT-474 [34]) [%] | normalised response (CAL-85-1 [35]) [%] | normalised response (Hs578T [36]) [%]
O=C(Cc1ccc(-c2ccc(OCCN3CCOCC3)cc2)cn1)NCc1ccccc1 [KX2-391] (100 nM) | 63.1 | 72.7 | 49.4 | 32.3 | 72.6 | 32.2 | 67.8 | 64.4 | 73.2 | 50.1 | 44.7 | 61 | 44.6 | 40.6 | 39.5 | 19.5 | 66 | 31.8 | 29.9 | 75.7 | 101 | 95.7 | 93.7 | 80.7 | 35.6 | 87.3 | 51.3 | 98.5 | 78.5 | 109 | 55.3 | -39.4 | 65.5 | 76.9 | 85.1 | 30.9 | -25.9
COc1cc2c(Oc3ccc4[nH]c(C)cc4c3F)ncnc2cc1OCCCN1CCCC1 [Cediranib] (10 nM) | 107 | 107 | 104 | 88.5 | 100 | 92.7 | 103 | 105 | 99.5 | 113 | 102 | 97.9 | 104 | 108 | 101 | 104 | 103 | 107 | 110 | 106 | 107 | 97.7 | 113 | 108 | 109 | 95.1 | 106 | 119 | 104 | 101 | 88.3 | 138 | 105 | 103 | 96.3 | 90.9 | 111
O=C(O)C1(C(=O)O)CCC1.[NH2-].[NH2-].[Pt+2] [Carboplatin] (100 nM) | 99.2 | 94.7 | 99.5 | 87.6 | 99 | 93.7 | 99.1 | 100 | 94.2 | 93 | 101 | 107 | 93.9 | 102 | 103 | 105 | 102 | 98 | 99.9 | 96.8 | 97.6 | 105 | 100 | 88.8 | 90.7 | 104 | 101 | 75.2 | 78.9 | 89.6 | 86.2 | 61.5 | 103 | 103 | 103 | 108 | 95.5
C=CC(=O)N1CCC[C@@H](n2nc(-c3ccc(Oc4ccccc4)cc3)c3c(N)ncnc32)C1 [Ibrutinib] (10 nM) | 110 | 87.3 | 100 | 105 | 89 | 113 | 106 | 108 | 94.2 | 99.8 | 105 | 102 | 98.4 | 109 | 103 | 67.4 | 104 | 99.5 | 106 | 100 | 77.9 | 101 | 107 | 107 | 112 | 98.7 | 110 | 118 | 87 | 114 | 63.2 | 92.8 | 84.5 | 100 | 96.3 | 95.8 | 93.2
CCN(CC)CCCC(C)Nc1c2ccc(Cl)cc2nc2ccc(OC)cc12 (stereo unspecified) [Mepacrine] (500 nM) | 97.2 | 101 | 99.8 | 101 | 104 | 64 | 44.1 | 103 | 98.4 | 113 | 104 | 105 | 93.1 | 86.1 | 106 | 90.8 | 98.9 | 103 | 98.7 | 96.9 | 104 | 108 | 93.8 | 85.1 | 66.9 | -33 | 99.1 | 111 | 103 | 109 | 85.1 | 109 | 74.7 | 82.7 | 103 | 104 | 63.5
C=CC(=O)Nc1cc2c(Nc3ccc(F)c(Cl)c3)ncnc2cc1OCCCN1CCOCC1 [Canertinib] (100 nM) | 99.1 | 91.9 | 102 | 85.5 | 70.9 | 60.2 | 99.5 | 103 | 84.5 | 93.9 | 95.7 | 43.9 | 76.6 | 97.5 | 96.6 | 46.4 | 95.3 | 69.1 | 97.4 | 99.3 | 102 | 105 | 114 | 51.8 | 98.2 | 97.6 | 107 | 108 | 75.7 | 94.3 | 106 | 136 | 104 | 107 | 84.4 | 72.3 | 109
CNC(=O)c1cc(Oc2ccc(NC(=O)Nc3cc(C(C)(C)C)nn3-c3ccc4ncccc4c3)c(F)c2)ccn1 [Rebastinib] (10 nM) | 96.8 | 97.1 | 109 | 98.3 | 107 | 90.6 | 105 | 92 | 102 | 109 | 104 | 114 | 94.7 | 105 | 106 | 101 | 102 | 98.7 | 104 | 103 | 98.2 | 101 | 98.2 | 57 | 101 | 101 | 105 | 94.3 | 107 | 86.8 | 95.4 | 70.1 | 84.8 | 85 | 98.3 | 113 | 106
C=CCc1cccc(/C=N/NC(=O)CN2CCN(Cc3ccccc3)CC2)c1O [PAC-1] (100 nM) | 102 | 102 | 105 | 118 | 99.6 | 91.8 | 103 | 107 | 97.1 | 104 | 101 | 111 | 99.4 | 103 | 99.3 | 108 | 102 | 103 | 104 | 98.7 | 107 | 102 | 99.4 | 100 | 98.2 | 106 | 116 | 105 | 101 | 110 | 75.2 | 79.1 | 107 | 83.5 | 103 | 99.7 | 84.3

Source: the supplement of paper PMC4862054
